Test results taken from patent EP0142732B1, “Pheophorbide derivatives and pharmaceutical preparations containing them” (TOYO HAKKA KOGYO KABUSHIKI KAISHA, priority 1983, dated 1985).

The compounds below were run on nitrosamine-induced cancer cells of the pancreas (assay: N2 pulsed laser spectro-fluorometry of removed organs after administration to tumour-bearing hamsters). Conditions: 24 hours after administration; 5 mg in 1 ml physiological saline.
Format: in vivo, golden hamsters
Description: Five mg of the test drug sodium 9-desoxo-9-hydroxy pheophorbide diluted in physiological saline (1 ml) was administered (1 ml) to golden hamsters (5 each for a group) 14-21 days after transplantation of nitrosamine-induced cancer cells of the pancreas, after which cancer cells and other organs were removed. N2-pulsed laser (N2 337 nm, 2 ns 400-1000 nm) was irradiated to each organ thus obtained to measure N2 pulsed laser spectro-fluorometry.
N2 pulsed laser spectro-fluorometry of each removed organ was measured 24 hours and 48 hours afterwards to investigate the wavelengths of 600 to 900 nm based on the peak wavelengths of NADH of 470 nm.
Golden hamsters (5 per one group) 14-21 days after transplantation of nitrosamine-induced cancer cells of the pancreas were administered 5 mg each of sodium 2-desethenyl-2-(1-hydroxyethyl) pheophorbide (sodium salt of (2)), sodium 2-desethynyl-2-(1-hydroxyethyl)-9-desoxo-9-hydroxy pheophorbide (sodium salt (3)), sodium 2-desethenyl-2-(1-acetyloxyethyl)-9-desoxo-9-acetyloxy pheophorbide (sodium salt of (4)), sodium ethylene glycol mono-10b-pheophorbate (sodium salt of (8)), disodium ethylene glycol di-10b-pheophorbate (sodium salt of (10)) and sodium N-phenylalanine 10b-methyl pheophorbid amide (sodium salt of (9)) respectively diluted with physiological saline (1 ml). Cancer cells and other organs were removed, irradiated with N2-pulsed laser (N2, 337 nm, 2 ns 400-1000 nm) to measure N2 pulsed laser spectro fluorometry. Using the. NADH peak wavelength of 470 nm as the reference, wavelengths in the range of from 600-900 nm were studied.
Various organs were removed 24 hours after administration and their N2 pulsed laser spectro-fluorometry was measured.

With `C=Cc1c(C)c2cc3nc(c4c5[nH]c(cc6nc(cc1[nH]2)C(C)=C6CC)c(C)c5C(O)C4C(=O)OC)C(CCC(=O)O)C3C` (stereo not shown) [9-Desoxo-9-hydroxy-pheophorbate (11), 9-desoxo-9-hydroxy-pheophorbide] the “accumulation in cancer cells and other organs (N2 pulsed laser spectro-fluorometry)” value was “generally found in organs”.

Same assay, conditions: 48 hours after administration; 5 mg in 1 ml physiological saline

For `C=Cc1c(C)c2cc3nc(c4c5[nH]c(cc6nc(cc1[nH]2)C(C)=C6CC)c(C)c5C(O)C4C(=O)OC)C(CCC(=O)O)C3C` (stereo not shown) [9-Desoxo-9-hydroxy-pheophorbate (11), 9-desoxo-9-hydroxy-pheophorbide], the “accumulation in cancer cells and other organs (N2 pulsed laser spectro-fluorometry)” value was “markedly accumulated in cancer cells alone but not in other cells”.

Same assay, conditions: sodium compounds; organs removed 24 hours after administration; N2 337 nm laser, 600-900 nm

Going from 9-Desoxo-9-hydroxy-pheophorbide C to `CCC1=C(C)c2cc3[nH]c(cc4nc(c5c6[nH]c(cc1n2)c(C)c6C(OC(C)=O)C5C(=O)OC)C(CCC(=O)O)C4C)c(C)c3C(C)OC(C)=O` (stereo not shown) [2-Desethenyl-2-(1-acetyloxyethyl)-9-desoxo-9-acetyloxypheophorbide], the “N2 pulsed laser spectro-fluorometry, wavelengths calculated using the NADH peak wavelength of 470 nm as the reference” value rises from 0.32 to 0.48.

Going from `CCC1=C(C)c2cc3[nH]c(cc4nc(c5c6[nH]c(cc1n2)c(C)c6C(O)C5C(=O)OC)C(CCC(=O)O)C4C)c(C)c3C(C)OC(C)=O` (stereo not shown) [2-Desethenyl-2-(1-acetyloxyethyl)-9-desoxo-9-hydroxy-pheophorbide] to `CCC1=C(C)c2cc3[nH]c(cc4nc(c5c6[nH]c(cc1n2)c(C)c6C(O)C5C(=O)OC)C(CCC(=O)O)C4C)c(C)c3C(C)O` (stereo not shown) [2-desethenyl-2-(1-hydroxyethyl)-9-desoxo-9-hydroxy-pheophorbide], the “N2 pulsed laser spectro-fluorometry, wavelengths calculated using the NADH peak wavelength of 470 nm as the reference” value rises from 0.95 to 3.13.

Going from `CCC1=C(C)c2cc3[nH]c(cc4nc(c5c6[nH]c(cc1n2)c(C)c6C(=O)C5C(=O)OC)C(CCC(=O)O)C4C)c(C)c3C(C)O` (stereo not shown) [2-desethenyl-2-(1-hydroxyethyl)-pheophorbide] to `C=Cc1c(C)c2cc3nc(c4c5[nH]c(cc6nc(cc1[nH]2)C(C)=C6CC)c(C)c5C(OC(C)=O)C4C(=O)OC)C(CCC(=O)O)C3C` (stereo not shown) [9-Desoxo-9-acetyloxy-pheophorbide, 9-desoxo-9-acetyloxy-pheophorbide], the “N2 pulsed laser spectro-fluorometry, wavelengths calculated using the NADH peak wavelength of 470 nm as the reference” value falls from 1.90 to 0.89.

First: C=Cc1c(C)c2cc3nc(c4c5[nH]c(cc6nc(cc1[nH]2)C(C)=C6CC)c(C)c5C(O)C4C(=O)OC)C(CCC(=O)O)C3C (stereo not shown) [9-Desoxo-9-hydroxy-pheophorbate (11), 9-desoxo-9-hydroxy-pheophorbide]
Second: C=Cc1c(C)c2cc3nc(c4c5[nH]c(cc6nc(cc1[nH]2)C(C)=C6CC)c(C)c5C(O)C4)C(CCC(=O)O)C3C (stereo not shown) [9-Desoxo-9-hydroxy-pyropheophorbide]
The “N2 pulsed laser spectro-fluorometry, wavelengths calculated using the NADH peak wavelength of 470 nm as the reference” value of the first is lower: 0.93 for the first, 0.98 for the second.

Going from `C=Cc1c(C)c2cc3nc(c4c5[nH]c(cc6nc(cc1[nH]2)C(C)=C6CC)c(C)c5C(O)C4C(=O)OCCOC(=O)C1c2c4nc(cc5[nH]c(cc6nc(cc7[nH]c2c(c7C)C1O)C(CC)=C6C)c(C=C)c5C)C(C)C4CCC(=O)O)C(CCC(=O)O)C3C` (stereo not shown) [Ethylene glycol di-10b-9-desoxo-9-hydroxypheophorbate] to `C=Cc1c(C)c2cc3nc(c4c5[nH]c(cc6nc(cc1[nH]2)C(C)=C6CC)c(C)c5C(=O)C4C(=O)OCCOC(=O)C1C(=O)c2c(C)c4cc5nc(cc6[nH]c(cc7nc(c1c2[nH]4)C(CCC(=O)O)C7C)c(C)c6C=C)C(C)=C5CC)C(CCC(=O)O)C3C` (stereo not shown) [Ethylene glycol di-10b-pheophorbate (10), ethylene glycol di-10b-pheophorbate], the “N2 pulsed laser spectro-fluorometry, wavelengths calculated using the NADH peak wavelength of 470 nm as the reference” value rises from 2.50 to 2.78.

Compared with `C=Cc1c(C)c2cc3nc(c4c5[nH]c(cc6nc(cc1[nH]2)C(C)=C6CC)c(C)c5C(O)C4C(=O)OCCO)C(CCC(=O)O)C3C` (stereo not shown) [Ethylene glycol mono-10b-9-desoxo-9-hydroxy-pheophorbate], `C=Cc1c(C)c2cc3nc(c4c5[nH]c(cc6nc(cc1[nH]2)C(C)=C6CC)c(C)c5C(=O)C4C(=O)OCCOC(C)=O)C(CCC(=O)O)C3C` (stereo not shown) [Monoacetylethylene glycol mono-10b-pheophorbate] is lower in “N2 pulsed laser spectro-fluorometry, wavelengths calculated using the NADH peak wavelength of 470 nm as the reference” value: 2.10 for the first, 1.30 for the second.

Going from `C=Cc1c(C)c2cc3nc(c4c5[nH]c(cc6nc(cc1[nH]2)C(C)=C6CC)c(C)c5C(O)C4C(=O)NC(Cc1ccccc1)C(=O)O)C(CCC(=O)OC)C3C` (stereo not shown) [N-Phenylalanine 10b-9-desoxo-9-hydroxy-methylpheophorbidamide] to `C=Cc1c(C)c2cc3nc(c4c5[nH]c(cc6nc(cc1[nH]2)C(C)=C6CC)c(C)c5C(=O)C4C(=O)NC(Cc1ccccc1)C(=O)O)C(CCC(=O)OC)C3C` (stereo not shown) [N-phenylalanine 10b-methylpheophorbidamide], the “N2 pulsed laser spectro-fluorometry, wavelengths calculated using the NADH peak wavelength of 470 nm as the reference” value rises from 0.73 to 0.75.

Going from `C=Cc1c(C)c2cc3nc(c4c5[nH]c(cc6nc(cc1[nH]2)C(C)=C6CC)c(C)c5C(=O)C4C(=O)OC)C(CCC(=O)O)C3C` (stereo not shown) [Pheophorbide (1), pheophorbide] to `C=Cc1c(C)c2cc3nc(c4c5[nH]c(cc6nc(cc1[nH]2)C(C)=C6CC)c(C)c5C(=O)C4)C(CCC(=O)O)C3C` (stereo not shown) [Pyropheophorbide, reference compound], the “N2 pulsed laser spectro-fluorometry, wavelengths calculated using the NADH peak wavelength of 470 nm as the reference” value falls from 0.78 to 0.25.

First: C=Cc1c(C)c2cc3nc(c4c5[nH]c(cc6nc(cc1[nH]2)C(C)=C6CC)c(C)c5C(=O)C4C(=O)OCCO)C(CCC(=O)O)C3C (stereo not shown) [ethylene glycol mono-10b-pheophorbate]
Second: Ethylene glycol di-10b-2-desethenyl-2-(1-hydroxyethyl)-9-desoxo-9-hydroxy-pheophorbate
The “N2 pulsed laser spectro-fluorometry, wavelengths calculated using the NADH peak wavelength of 470 nm as the reference” value of the first is lower: 1.72 for the first, 1.80 for the second.

Going from “Ethylene glycol di-10b-2-desethenyl-2-(1-hydroxyethyl)-pheophorbate” to “Monoacetylethylene glycol mono-10b-9-desoxo-9-acetyloxy-pheophorbate”, the “N2 pulsed laser spectro-fluorometry, wavelengths calculated using the NADH peak wavelength of 470 nm as the reference” value falls from 2.50 to 0.85.

“Monoacetylethylene glycol mono-10b-9-desoxo-9-hydroxy-pheophorbate” was tested, and the “N2 pulsed laser spectro-fluorometry, wavelengths calculated using the NADH peak wavelength of 470 nm as the reference” value was 1.20.

The compounds below were run on leukemic Molt 4 Cell (assay: Biochemiluminescence by single photoncounter system after laser irradiation (destruction of cancer cells)). Conditions: Homo sapiens, 100 µg/2 ml, incubated 24 hours at 37°C, He-Ne laser 630 nm, 10 min, 20 mW, read-out: cancer cells destroyed.
Format: cell-based
Description: Sodium 9-desoxo-9-hydroxy pheophorbide dissolved in physiological saline of respective concentrations (25 µg/2 ml, 50 µg/2 ml, […]) was added to leukemic Molt 4 Cell ([…] Cells) and the resultant product was incubated for 24 hours at 37°C.
Each incubated cell thus obtained was irradiated with laser (He-Ne gas, 630 nm, 10 min, 20 mW) and trace biochemiluminescence was measured by single photoncounter system.
Intensity of biochemiluminescence substantially correponds to the degree of destructive effect on cancer cells and thus by studying the biochemiluminescence by single photoncounter system, it is possible to predict the destructive effect on cancer cells.
Leukemic Molt 4 cell ([…] cells) was added with physiological saline containing sodium 2- desethenyl-2-(1-hydroxyethyl) pheophorbide (sodium salt of (2)) in respective concentrations ([…], 100 µg/2 ml) and then incubated (37°C, 24 hours). Incubated cells each were irradiated with laser ([…], 630 nm, 10 min, 20 mW) to investigate generation of biochemiluminescence by single photoncounter system by measuring biochemiluminescence; The intensity of biochemiluminescence by single photoncounter system substantially corresponds to the degree of destruction of the cancer cells. […]

`CCC1=C(C)c2cc3[nH]c(cc4nc(c5c6[nH]c(cc1n2)c(C)c6C(=O)C5C(=O)OC)C(CCC(=O)O)C4C)c(C)c3C(C)O` (stereo not shown) [2-desethenyl-2-(1-hydroxyethyl)-pheophorbide] and `C=Cc1c(C)c2cc3nc(c4c5[nH]c(cc6nc(cc1[nH]2)C(C)=C6CC)c(C)c5C(O)C4C(=O)OC)C(CCC(=O)O)C3C` (stereo not shown) [9-Desoxo-9-hydroxy-pheophorbate (11), 9-desoxo-9-hydroxy-pheophorbide] cannot be ordered by cytotoxicity at 50 µg/mL: greater than 95% for the first, greater than 95% for the second.
